Drawing on ChEMBL document CHEMBL1909046, “DrugMatrix in vitro pharmacology data”, this text covers IC50 and Ki for 14 compounds.

The nature of assay [1]: DRUGMATRIX: ATPase, Na+/K+ enzyme inhibition (substrate: ATP). The format is tissue-based, Sus scrofa, Heart. The settings on record: Not Active = under 50% inhibition at 10 µM.
A short description of assay [2]: DRUGMATRIX: Sigma2 radioligand binding (ligand: [3H] Ifenprodil). Conditions: Not Active = under 50% inhibition at 10 µM. The format is cell membranes, Rattus norvegicus, Wistar, Brain, Membrane.
Assay [3] addresses T1, Cholecystokinin receptor type A (Homo sapiens, UniProt P32238).
T1 sequence (P32238 whole entry): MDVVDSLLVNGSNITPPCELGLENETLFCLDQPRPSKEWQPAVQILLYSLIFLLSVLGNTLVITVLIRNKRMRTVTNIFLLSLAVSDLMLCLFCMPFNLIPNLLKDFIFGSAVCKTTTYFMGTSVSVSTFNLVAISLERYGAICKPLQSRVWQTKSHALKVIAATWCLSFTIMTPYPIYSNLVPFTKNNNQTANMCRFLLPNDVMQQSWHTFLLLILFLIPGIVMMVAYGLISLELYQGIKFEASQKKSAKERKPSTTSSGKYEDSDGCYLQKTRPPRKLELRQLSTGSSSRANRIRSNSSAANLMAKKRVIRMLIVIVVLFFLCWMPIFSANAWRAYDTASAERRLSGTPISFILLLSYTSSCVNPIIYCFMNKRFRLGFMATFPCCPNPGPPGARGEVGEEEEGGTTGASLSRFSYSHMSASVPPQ
The format is cell membranes, Membrane. The settings on record: 1321-n1.

The target in assay [4] is T2, Muscarinic acetylcholine receptor M2 (Homo sapiens, UniProt P08172). Also: in other assays of this panel Not Active means under 50% inhibition at 10 µM.
T2 sequence (P08172 whole entry): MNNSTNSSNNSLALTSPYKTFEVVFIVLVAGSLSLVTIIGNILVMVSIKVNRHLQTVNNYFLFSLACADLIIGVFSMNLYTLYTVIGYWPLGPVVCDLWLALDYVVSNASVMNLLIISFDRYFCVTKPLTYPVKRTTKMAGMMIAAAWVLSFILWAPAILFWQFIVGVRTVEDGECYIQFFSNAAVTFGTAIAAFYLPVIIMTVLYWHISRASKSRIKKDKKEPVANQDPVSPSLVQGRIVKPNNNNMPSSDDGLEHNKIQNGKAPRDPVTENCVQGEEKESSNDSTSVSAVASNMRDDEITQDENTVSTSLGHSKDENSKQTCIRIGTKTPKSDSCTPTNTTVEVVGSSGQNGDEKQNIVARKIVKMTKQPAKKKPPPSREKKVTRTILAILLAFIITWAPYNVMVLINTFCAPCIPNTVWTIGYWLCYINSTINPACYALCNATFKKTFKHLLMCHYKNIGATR
The format is cell membranes, CHO-K1, Membrane. Conditions: cho-k1.

Another assay concerns the target Glycine receptor (Rattus norvegicus, UniProt P22771+P24524+P07727+P20781). The format is cell membranes, Wistar, Spinal cord, Membrane. Also: in other assays of this panel Not Active means under 50% inhibition at 10 µM.
Assay [5] can be described thus: DRUGMATRIX: GABAA, Flunitrazepam, Central radioligand binding (ligand: [3H] Flunitrazepam). Conditions: Not Active = under 50% inhibition at 10 µM. The format is cell membranes, Rattus norvegicus, Wistar, Brain, Membrane.
Assay [6] is described as follows: DRUGMATRIX: Glutamate, NMDA, Agonism radioligand binding (ligand: [3H] CGP-39653). Format: cell membranes, Rattus norvegicus, Wistar, Cerebral cortex, Membrane. The settings on record: Not Active = under 50% inhibition at 10 µM.

As a reminder, the IC50 is the concentration needed to halve the response being measured. One may read the Ki as the equilibrium dissociation constant of an inhibitor or competing ligand from its target.

Turning to `Oc1ccc(OCc2ccccc2)cc1` [MONOBENZONE], the IC50 result (in assay [1]; in assay [2]; in assay [3]; in assay [4]; against Glycine receptor; in assay [5]) was “Not Active” throughout. Further, the IC50 result in assay [6] is given as “Not Active”. For the same compound, the Ki entry in assay [1], in assay [2], in assay [5] and in assay [6] was “Not Active” in each case.
For `CC(C)(Oc1ccc(C2CCCc3ccccc32)cc1)C(=O)O` (centres undefined) [NAFENOPIN], the IC50 result (in assay [1]; in assay [2]; in assay [3]; in assay [4]; on Glycine receptor; in assay [5]) was “Not Active” in each case. In assay [6], the half-maximal inhibitory concentration (IC50) result was “Not Active”. In addition, the Ki result in assay [1], in assay [2], in assay [5] and in assay [6] was “Not Active” in each case.
For the compound `COc1ccc2cc([C@H](C)C(=O)O)ccc2c1` [NAPROXEN], the IC50 entry (in assay [1]; in assay [2]; in assay [3]; in assay [4]; against Glycine receptor; in assay [5]) was “Not Active” in each case. In addition, the IC50 result in assay [6] is recorded as “Not Active”. In addition, the inhibition constant (Ki) result in assay [1], in assay [2], in assay [5] and in assay [6] was “Not Active” in each case.
Turning to `CC(C)[C@H]1CC[C@H](C(=O)N[C@H](Cc2ccccc2)C(=O)O)CC1` [NATEGLINIDE], the IC50 result (in assay [1]; in assay [2]; in assay [3]; in assay [4]; at Glycine receptor; in assay [5]) was “Not Active” in each case. The IC50 result in assay [6] is recorded as “Not Active”. The Ki result in assay [1], in assay [2], in assay [5] and in assay [6] was “Not Active” each time.
`CCN[C@@H]1C[C@H](N)[C@@H](O[C@H]2OC(CN)=CC[C@H]2N)[C@H](O)[C@H]1O[C@H]1OC[C@](C)(O)[C@H](NC)[C@H]1O` [NETILMICIN]: the IC50 result (in assay [1]; in assay [2]; in assay [3]; in assay [4]; against Glycine receptor; in assay [5]) was “Not Active” each time. In addition, the IC50 result in assay [6] was “Not Active”. Further, the Ki entry in assay [1], in assay [2], in assay [5] and in assay [6] was “Not Active” throughout.
Take `COC(=O)C1=C(C)NC(C)=C(C(=O)OCC(C)C)C1c1ccccc1[N+](=O)[O-]` (centres undefined) [NISOLDIPINE]: the IC50 result (in assay [1]; in assay [2]; in assay [3]; in assay [4]; on Glycine receptor; in assay [5]) was “Not Active” throughout. For the same compound, in assay [6], the IC50 result is on record as “Not Active”. For the same compound, the Ki entry in assay [1], in assay [2], in assay [5] and in assay [6] was “Not Active” in each case.
In the case of `CCOC(=O)C1=C(C)NC(C)=C(C(=O)OC)C1c1cccc([N+](=O)[O-])c1` (centres undefined) [NITRENDIPINE], the IC50 result (in assay [1]; in assay [2]; in assay [3]; in assay [4]; against Glycine receptor; in assay [5]) was “Not Active” in each case. In assay [6], the IC50 result is reported as “Not Active”. Also, the Ki result in assay [1], in assay [2], in assay [5] and in assay [6] was “Not Active” in each case.
With `C#C[C@]1(OC(C)=O)CC[C@H]2[C@@H]3CCC4=CC(=O)CC[C@@H]4[C@H]3CC[C@@]21C` [NORETHINDRONE ACETATE], the IC50 result (in assay [1]; in assay [2]; in assay [3]; in assay [4]; against Glycine receptor; in assay [5]) was “Not Active” each time. In addition, the IC50 entry in assay [6] was “Not Active”. The Ki entry in assay [1], in assay [2], in assay [5] and in assay [6] was “Not Active” in each case.
With `COc1ccc2[nH]c([S+]([O-])Cc3ncc(C)c(OC)c3C)nc2c1` (centres undefined) [OMEPRAZOLE], the IC50 result (in assay [1]; in assay [2]; in assay [3]; in assay [4]; at Glycine receptor; in assay [5]) was “Not Active” each time. In addition, in assay [6], the IC50 result is reported as “Not Active”. Also, the Ki entry in assay [1], in assay [2], in assay [5] and in assay [6] was “Not Active” each time.
`Cc1nccn1CC1CCc2c(c3ccccc3n2C)C1=O` (centres undefined) [ONDANSETRON]: the IC50 entry (in assay [1]; in assay [2]; in assay [3]; in assay [4]; at Glycine receptor; in assay [5]) was “Not Active” in each case. Moreover, in assay [6], the IC50 entry is “Not Active”. For the same compound, the Ki result in assay [1], in assay [2], in assay [5] and in assay [6] was “Not Active” throughout.
As for `CCn1cc(C(=O)O)c(=O)c2cc(F)c(N3CCN(C)CC3)cc21` [PEFLOXACIN], the IC50 entry (in assay [1]; in assay [2]; in assay [3]; in assay [4]; against Glycine receptor; in assay [5]) was “Not Active” throughout. Besides, in assay [6], the IC50 result is given as “Not Active”. Moreover, the Ki result in assay [1], in assay [2], in assay [5] and in assay [6] was “Not Active” throughout.
`CCCCOc1ccc(OCCCN2CCOCC2)cc1` [PRAMOXINE]: the IC50 result in assay [1] is “Not Active”; in assay [2] (read-out: IC50) it was 1030 nM; in assay [3] it was “Not Active”; in assay [4] it was “Not Active”; against Glycine receptor it was “Not Active”; in assay [5] it was “Not Active”. In addition, the IC50 result in assay [6] is recorded as “Not Active”. In addition, the Ki result in assay [1] is “Not Active”; in assay [2] (read-out: Ki) it was 633 nM; in assay [5], “Not Active”; in assay [6], “Not Active”.
With `O=C(C1CCCCC1)N1CC(=O)N2CCc3ccccc3C2C1` (centres undefined) [PRAZIQUANTEL], the IC50 entry (in assay [1]; in assay [2]; in assay [3]; in assay [4]; at Glycine receptor; in assay [5]) was “Not Active” each time. Moreover, in assay [6], the IC50 entry is on record as “Not Active”. The Ki result in assay [1], in assay [2], in assay [5] and in assay [6] was “Not Active” each time.
With `CCN(CC)CCOC(=O)c1ccc(N)cc1` [PROCAINE], the IC50 entry (in assay [1]; in assay [2]; in assay [3]; in assay [4]; on Glycine receptor; in assay [5]) was “Not Active” in each case. In assay [6], the IC50 result is reported as “Not Active”. Besides, the Ki entry in assay [1], in assay [2], in assay [5] and in assay [6] was “Not Active” in each case.
